Measurements: ChEMBL document CHEMBL4699460, “Integrating DNA-encoded chemical libraries with virtual combinatorial library screening: Optimizing a PARP10 inhibitor” (Bioorg Med Chem Lett, 2020)

Experiments:
[1] = target: T1, Protein mono-ADP-ribosyltransferase PARP12 (Homo sapiens) (UniProt Q9H0J9); test: (§1) Inhibition of N-terminal His-GST tagged human PARP12 (500 to 701 residues) expressed in baculovirus infected Sf9 cells assessed as reduction in NAD+-dependent ADP ribosylation using histone as substrate at 10 uM incubated for 1 hr in presence of biotinylated NAD+ and activated DNA by chemiluminescence based microplate reader assay relative to control
T1 sequence (whole entry): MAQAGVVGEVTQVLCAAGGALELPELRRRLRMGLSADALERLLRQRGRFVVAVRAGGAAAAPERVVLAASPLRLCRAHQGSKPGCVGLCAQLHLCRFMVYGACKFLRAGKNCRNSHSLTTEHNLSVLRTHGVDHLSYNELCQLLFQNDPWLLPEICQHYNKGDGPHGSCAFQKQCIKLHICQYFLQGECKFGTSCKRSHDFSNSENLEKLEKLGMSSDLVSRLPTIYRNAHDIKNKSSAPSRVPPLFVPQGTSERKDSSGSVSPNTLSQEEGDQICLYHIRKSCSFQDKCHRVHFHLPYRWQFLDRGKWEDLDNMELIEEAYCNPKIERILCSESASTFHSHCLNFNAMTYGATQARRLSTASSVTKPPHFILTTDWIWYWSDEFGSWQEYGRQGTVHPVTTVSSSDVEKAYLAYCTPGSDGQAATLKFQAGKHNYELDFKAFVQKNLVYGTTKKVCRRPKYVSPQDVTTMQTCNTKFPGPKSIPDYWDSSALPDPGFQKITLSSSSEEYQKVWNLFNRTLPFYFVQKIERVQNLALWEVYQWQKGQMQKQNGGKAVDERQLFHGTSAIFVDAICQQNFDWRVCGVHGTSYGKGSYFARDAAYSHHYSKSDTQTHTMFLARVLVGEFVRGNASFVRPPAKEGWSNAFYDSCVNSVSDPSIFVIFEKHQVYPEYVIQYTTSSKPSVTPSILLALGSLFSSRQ

[2] = target: T2, Protein mono-ADP-ribosyltransferase TIPARP (Homo sapiens) (UniProt Q7Z3E1); test: as §1, with “FLAG-tagged” for “His-GST tagged”, “PARP7 (400” for “PARP12 (500”, “657” for “701”
T2 sequence (whole entry): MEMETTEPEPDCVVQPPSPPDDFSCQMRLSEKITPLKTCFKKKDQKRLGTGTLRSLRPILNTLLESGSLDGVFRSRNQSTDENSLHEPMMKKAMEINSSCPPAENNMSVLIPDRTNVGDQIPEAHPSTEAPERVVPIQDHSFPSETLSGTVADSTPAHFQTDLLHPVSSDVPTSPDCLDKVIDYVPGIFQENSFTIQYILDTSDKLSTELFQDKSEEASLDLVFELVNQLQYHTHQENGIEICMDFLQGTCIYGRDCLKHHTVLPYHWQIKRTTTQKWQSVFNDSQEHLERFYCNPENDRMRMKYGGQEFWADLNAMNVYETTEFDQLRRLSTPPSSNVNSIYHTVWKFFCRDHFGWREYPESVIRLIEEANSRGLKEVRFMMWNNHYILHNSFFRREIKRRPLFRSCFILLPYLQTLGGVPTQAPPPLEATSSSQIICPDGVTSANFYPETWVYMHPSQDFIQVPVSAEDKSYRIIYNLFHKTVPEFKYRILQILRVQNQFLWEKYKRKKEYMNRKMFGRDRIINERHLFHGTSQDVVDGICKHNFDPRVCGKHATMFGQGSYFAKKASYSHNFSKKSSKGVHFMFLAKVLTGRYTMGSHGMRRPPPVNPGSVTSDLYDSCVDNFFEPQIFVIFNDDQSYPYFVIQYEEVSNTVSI

[3] = target: T3, Protein mono-ADP-ribosyltransferase PARP11 (Homo sapiens) (UniProt Q9NR21); test: as §1, with “GST” for “His-GST”, “PARP11 (8” for “PARP12 (500”, “338” for “701”
T3 sequence (whole entry): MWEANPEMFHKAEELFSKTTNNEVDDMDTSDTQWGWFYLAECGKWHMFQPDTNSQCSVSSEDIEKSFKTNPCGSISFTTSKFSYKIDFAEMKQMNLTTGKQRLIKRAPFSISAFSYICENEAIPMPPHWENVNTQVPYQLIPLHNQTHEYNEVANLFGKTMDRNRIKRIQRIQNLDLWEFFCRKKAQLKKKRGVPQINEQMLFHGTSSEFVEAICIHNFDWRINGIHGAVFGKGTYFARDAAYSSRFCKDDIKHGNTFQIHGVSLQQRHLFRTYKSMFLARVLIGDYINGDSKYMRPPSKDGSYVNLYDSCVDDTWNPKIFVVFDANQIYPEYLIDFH

| SMILES | inhibition [1] | inhibition [2] | inhibition [3] |
| --- | --- | --- | --- |
| CC1(CNC(=O)COc2cccc3c2CCCC3=O)CCN(C(=O)CCc2nc3ccccc3[nH]c2=O)CC1 | 16% | > 50% | > 50% |
| CNC(=O)[C@H](CNC(=O)CCc1nc2ccccc2[nH]c1=O)NC(=O)c1ccc2c(c1)CCCC2=O | < 25% | < 25% | < 25% |
